These are literature values, as cited in patent US20050175694A1, “Long acting compositions comprising zidovudine and lamivudine” (priority 2002, published 2005).

For this data set the following is noted: in vivo.

As to `Nc1ccn([C@@H]2CS[C@H](CO)O2)c(=O)n1` [lamivudine], the oral bioavailability is recorded as 86%.
For the compound `Cc1cn([C@H]2C[C@H](N=[N+]=[N-])[C@@H](CO)O2)c(=O)[nH]c1=O` [zidovudine], the serum half-life was 1.1 h and the oral bioavailability was 60%.
